Test results reported in ChEMBL document CHEMBL4000153, “Bioactive Sesquiterpenoid and Polyacetylene Glycosides from Atractylodes lancea” (J Nat Prod, 2016).

Experiments:
BV-2 = test: Antiinflammatory activity in mouse BV2 cells assessed as inhibition of LPS-induced nitric oxide production after 24 hrs by Griess assay; type: functional, cell-based; settings: BV-2, 24 h
HepG2 = test: Hepatoprotective activity against APAP-induced cell injury in human HepG2 cells assessed as survival rate at 10 uM after 48 hrs by MTT assay relative to control; type: functional; settings: HepG2, 48 h, read-out: Survival

## CC1=CC(=O)C=C(CO)[C@@]12CC[C@@H](C(C)(C)O[C@@H]1O[C@H](CO)[C@@H](O)[C@H](O)[C@H]1O)C2
BV-2
  IC50: 11.4 µM

## COc1cc(/C=C/C(=O)CC(=O)/C=C/c2ccc(O)c(OC)c2)ccc1O [CURCUMIN]
BV-2
  IC50: 4.77 µM

## CC1=CC(=O)C=C(CO)[C@@]12CC[C@@H](C(C)(C)O[C@@H]1O[C@H](CO[C@@H]3OC[C@](O)(CO)[C@H]3O)[C@@H](O)[C@H](O)[C@H]1O)C2
HepG2
  viability at 10 µM: 58.2%

## COC(=O)c1cc(OC)c2c(c1-c1c(CO)cc(OC)c3c1OCO3)OCO2 [BICYCLOL]
HepG2
  viability at 10 µM: 52.9%
